For test [1], the target named is RAC-alpha serine/threonine-protein kinase (Homo sapiens, UniProt P31749). As to the kind of experiment: AKT Enzyme Assay: A TTP Mosquito liquid handling instrument is used to place 125 nl of the appropriate concentration of inhibitor in 100% DMSO (for a dose response curve calculation) into each well of a 384-well plate. To this reaction components are added to a final volume of 12.5 µl: 0.1 ng/µl His-AKT (Full Length), (Invitrogen, Part # P2999, Lot #641228C). 160 uM ATP (Fluka, 02055) 1 mM DTT (Sigma, D0632) 1 mM MgCl2 (Sigma, M1028) 1 µM substrate peptide (sequence FITC-AHA-[…]-NH2), synthesized by Tufts Peptide Synthesis service. 100 mM HEPES pH 7.5 (Calbiochem, 391338)0.015% Brij-35 (Sigma, B4184)The reaction is incubated for 90 min at 25 C, and then stopped by the addition of 70 µl of Stop buffer (100 mM HEPES pH 7.5, 0.015% Brij-35, 10 mM EDTA (Sigma, E7889)).The plate is read on a Caliper LC 3000 in an Off-Chip mobility shift assay format, using the following parameters for a 12-sipper chip: screening pressure -2.3 psi, upstream voltage -500, and downstream voltage -3000.
Sequence of RAC-alpha serine/threonine-protein kinase (P31749 whole entry): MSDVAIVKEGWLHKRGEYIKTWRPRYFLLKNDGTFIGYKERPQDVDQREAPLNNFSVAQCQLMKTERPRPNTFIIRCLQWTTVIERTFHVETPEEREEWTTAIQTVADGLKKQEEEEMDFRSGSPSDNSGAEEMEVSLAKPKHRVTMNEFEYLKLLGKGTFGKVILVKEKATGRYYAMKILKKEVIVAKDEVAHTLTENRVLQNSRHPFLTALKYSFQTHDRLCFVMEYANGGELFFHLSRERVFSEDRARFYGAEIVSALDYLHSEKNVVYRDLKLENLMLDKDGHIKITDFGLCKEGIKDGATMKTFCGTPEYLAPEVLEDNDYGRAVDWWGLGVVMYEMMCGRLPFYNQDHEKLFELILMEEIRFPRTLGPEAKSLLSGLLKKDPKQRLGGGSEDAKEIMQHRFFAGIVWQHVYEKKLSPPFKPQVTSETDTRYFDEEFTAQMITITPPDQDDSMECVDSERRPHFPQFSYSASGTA

Test [2] has as its target Ribosomal protein S6 kinase beta-1 (Homo sapiens, UniProt P23443, T412E). As to the kind of experiment: P70S6K Enzyme Assay: P70S6K inhibitor compounds are diluted and plated in 96 well plates. A reaction mixture including the following components is then added to the compound plate to initiate the enzyme reaction; P70S6K (3 nM, T412E mutant, Millipore) is mixed with 24 uM ATP in an assay buffer containing 100 mM Hepes (pH 7.5), 5 mM MgCl2, 1 mM DTT, 0.015% Brij and 1 uM of the substrate peptide FITC-AHA-[…]-OH (derived from the S6 ribosomal protein sequence, FITC=fluorescein isothiocyanate, AHA=6-aminohexanoic acid). The reaction is incubated for 90 min at 25° C., before the addition of 10 mM EDTA to stop the reaction. The proportion of substrate and product (phosphorylated) peptide is analysed on a Caliper Life Sciences Lab Chip 3000, using a pressure of -1.4 psi, and upstream and downstream voltages of -3000 and -700 respectively. Product peaks are resolved before substrate peaks on the resulting chromatograms.

Sequence of Ribosomal protein S6 kinase beta-1 (P23443 whole entry T412E): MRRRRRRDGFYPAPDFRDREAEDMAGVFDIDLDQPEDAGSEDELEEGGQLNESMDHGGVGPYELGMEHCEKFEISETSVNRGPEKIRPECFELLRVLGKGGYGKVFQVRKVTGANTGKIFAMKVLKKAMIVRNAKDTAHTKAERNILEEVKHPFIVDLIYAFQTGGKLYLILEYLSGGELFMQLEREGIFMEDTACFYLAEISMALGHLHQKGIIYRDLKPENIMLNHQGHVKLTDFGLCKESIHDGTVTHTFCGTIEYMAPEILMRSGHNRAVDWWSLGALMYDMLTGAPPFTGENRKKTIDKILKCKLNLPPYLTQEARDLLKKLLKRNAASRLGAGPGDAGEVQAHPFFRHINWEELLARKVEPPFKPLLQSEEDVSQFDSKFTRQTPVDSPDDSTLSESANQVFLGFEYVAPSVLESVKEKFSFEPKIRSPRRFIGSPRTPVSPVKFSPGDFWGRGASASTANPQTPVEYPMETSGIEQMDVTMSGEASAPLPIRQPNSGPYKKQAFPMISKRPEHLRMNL

What is called IC50 is the midpoint of a concentration-inhibition curve. Regarding `CCc1c(N)ncnc1N1CCC(c2nc(-c3cccc(Cl)n3)cn2CCN2CCC2)CC1`, the IC50 was 780 nM in test [1] and 58 nM in test [2].
